Data on 1 compound can be found in patent publication US11123434B2, “Drug delivery device and its method of manufacture” (City University of Hong Kong, priority 2017, dated 2021).

This data set in a line: Drug release from loaded sponges at 37° C. in deionized water. The conditions noted are these: comparison among model drugs MB, ORO, TH. Type of data set: physicochemical. An excerpt: To maintain constant therapeutic levels for prolonged periods and to reduce the total dose of administration, the ability of a carrier to prolong drug release is required.

Regarding `CN(C)[C@@H]1C(=O)C(C(N)=O)=C(O)[C@@]2(O)C(=O)C3=C(O)c4c(O)cccc4[C@@](C)(O)[C@H]3C[C@@H]12.Cl` [TH], the drug release sustainability entry is on record as “more sustainable as compared to that of ORO”.
